From article PMC6022709 (BMC Research Notes, 2018)
Values after ≈ are worked out from the molar mass of the structure shown. Where two headings read alike, the source gives them in different places.

System: M. tuberculosis resistant isolates
Format: cell-based, Mycobacterium tuberculosis
Conditions: solid medium 7H10 with 10% v/v OADC, 3–4 weeks

| SMILES | MIC99 (strain LP-0458690-RM1) [µM] | MIC99 (strain LP-0458690-RM2) [µM] | MIC99 (strain LP-0458690-RM3) [µM] | MIC99 (strain LP-0458690-RM4) [µM] | MIC99 (strain LP-0458690-RM5) [µM] | MIC99 (strain LP-0458690-RM6) [µM] | MIC99 (strain LP-0458686-RM1) [µM] | MIC99 (strain LP-0458686-RM2) [µM] | MIC99 (strain LP-0458686-RM3) [µM] |
| --- | --- | --- | --- | --- | --- | --- | --- | --- | --- |
| CC(C)CC1C(=O)N2NCCCC2C(=O)N2NCCCC2C(=O)N(C)C(Cc2ccccc2)C(=O)N2CCCC2C(=O)NC(Cc2ccccc2)C(=O)N1O (stereo not drawn) [Compound 1, cyclo[N-(Me)Phe-Pro-Phe-N-(OH)Leu-Piz-Piz]] | 13 (≈ 9.87 µg/mL) | 25 (≈ 19 µg/mL) | 25 (≈ 19 µg/mL) | 25 (≈ 19 µg/mL) | 25 (≈ 19 µg/mL) | 25 (≈ 19 µg/mL) |  |  |  |
| CC(C)CC1C(=O)N2NCCCC2C(=O)N2NCCCC2C(=O)N(C)C(Cc2ccccc2)C(=O)N2CCCC2C(=O)NC(C(C)C)C(=O)N1O (stereo not drawn) [Compound 3] |  |  |  |  |  |  | 3.1 (≈ 2.2 µg/mL) | 3.1 (≈ 2.2 µg/mL) | 3.1 (≈ 2.2 µg/mL) |
